Test results from US10334854B2, “Herbicide combinations comprising glufosinate and indaziflam” (BAYER CROPSCIENCE AKTIENGESELLSCHAFT, priority 2016, dated 2019).

Assays:
[1] = tested on: monocotyledonous and dicotyledonous harmful plant species; settings: stated as known; cited from earlier work
Amaranthus retroflexus = assay: Greenhouse pot trial, post-emergence herbicidal activity; format: in vivo; settings: single post-emergence treatment, 12 g/ha of indaziflam, BBCH growth stage 11-12
Description: (§1) In separate pots, biological trials were conducted in the greenhouse under identical conditions (apart from the treatment with the different products P1 and P2 mentioned above). Each pot contained the same soil and the same amount of seeds of each of the following weeds (two monocotyledonous and two dicotyledonous harmful plant species (weed species)):
(§2) Tables 1 to 4 reflect the respective observed herbicidal activity ratings after treatment of the monocotyledonous harmful plant species (BBCH growth stage 11) and dicotyledonous harmful plant species (BBCH growth stage 10) for the different products applied once in post-emergence.
(§3) The observation period in each case was 40 days after start of treatment with the respective products P1 and P2 mentioned above, both in amounts of 3 L/ha and 5 L/ha, respectively.
(§4) Tables 5 to 8 reflect the respective observed herbicidal activity ratings after treatment of the monocotyledonous harmful plant species (BBCH growth stage 12-13) and dicotyledonous harmful plant species (BBCH growth stage 12) for the different products applied once in post-emergence. The observation period in each case was 40 days after start of treatment with the respective products P1 and P2 mentioned above, both in amounts of 3 L/ha and 5 L/ha, respectively.
(§5) Table 9 reflects the post-emergence efficacy of indaziflam [the ratio by weight of the (1*R)-1-fluoroethyl diastereoisomer of indaziflam to the ratio by weight of the (1*S)-1-fluoroethyl diastereoisomer of indaziflam was about 95:5] on the above mentioned weeds (two monocotyledonous and two dicotyledonous harmful plant species (weed species)) AMARE, STEME, LOLMU and POOAN, each at BBCH growth stage 11-12. Indaziflam was used in an amount of 12 g/ha.

Poa annua = assay: as above; format: in vivo; settings: single post-emergence treatment, 12 g/ha of indaziflam, BBCH growth stage 11-12
Description: as §1, §2, §3, §4, §5

Lolium multiflorum = assay: as above; format: in vivo; settings: single post-emergence treatment, 12 g/ha of indaziflam, BBCH growth stage 11-12
Description: as §1, §2, §3, §4, §5

Stellaria media = assay: as above; format: in vivo; settings: single post-emergence treatment, 12 g/ha of indaziflam, BBCH growth stage 11-12
Description: as §1, §2, §3, §4, §5

Cc1ccc2c(c1)[C@H](Nc1nc(N)nc([C@@H](C)F)n1)[C@@H](C)C2 (mixture of isomers) [indaziflam, N^2-[(1R,2S)-2,3-dihydro-2,6-dimethyl-1H-inden-1-yl]-6-[(1RS)-1-fluoroethyl]-1,3,5-triazine-2,4-diamine]
post-emergence efficacy [1]: insufficient
Regrowth (ratings of herbicidal activity) (Amaranthus retroflexus): very weak herbicidal effect starting on day 7 after treatment
Regrowth (ratings of herbicidal activity) (Poa annua): no herbicidal effect
Regrowth (ratings of herbicidal activity) (Lolium multiflorum): no herbicidal effect
Regrowth (ratings of herbicidal activity) (Stellaria media): no herbicidal effect
